{"source": "patent US20260193295A1", "about": "“CILAGICIN COMPOUNDS AND METHODS OF USE THEREOF” (priority 2022, published 2026)", "key": {"[1]": {"experiment": "Isothermal titration calorimetry (ITC)", "type": "binding", "conditions": "25° C., DOPC vesicles", "protocol": "Isothermal titration calorimetry (ITC) The interaction of cilagicin and undecaprenyl phosphate (C55-P, Larodan, SE) or undecaprenyl diphosphate (C55-PP, Larodan, SE) was measured using ITC. Briefly, 0.1 μm of large unilamellar vesicles (LUVs) was prepared by mixing 1,2-dioleoyl-sn-glycero-3-phosphocholine (DOPC, Avanti, AL) and 0.1% of either C55-P or C55-PP in chloroform/methanol (2:1). The resulting lipid suspension was dried under argon gas for 2 hours and then rehydrated in 10 mM HEPES buffer (pH 7.5, 100 mM NaCl). The dried sample was filtered 10 times through an Avanti mini extruder (Avanti, AL) using a 0.1 μM filter membrane. ITC binding experiments were performed using a MicroCal Auto-iTC200. A vesicle suspension of 0.27 μM C55-P or 0.25 μM C55-PP and 2.5 mM DOPC in HEPES buffer was titrated into a freshly made solution of 0.1 mM cilagicin in the same buffer. The titration was conducted under the following conditions: temperature 25° C., reference power 5 uCals-1, syringe-stirring speed 750 rpm, number of injections 19, injection volume 2 μl, and time between injections 150 s. The calorimetric data obtained from the Auto-iTC200 instrument was analyzed using AFFINImeter software. Thermodynamic parameters (enthalpy (AH), entropy (AS), and the equilibrium binding constant (KD)) were calculated using a one-binding site model."}, "[2]": {"experiment": "Animal infection model (cilagicin, not further described)", "type": "in vivo"}, "[3]": {"system": "Enterococcus casseliflavus", "type": "cell-based", "protocol": "(§1) MIC assay were conducted using the protocol recommended by the Clinical and Laboratory Standards Institute.(37) Culture conditions (temperature, medium) are detailed in Table 3. All compounds were dissolved in sterile DMSO (ATCC, USA) to give a concentration of 6.4 mg/mL. Vancomycin hydrochloride was used as positive controls. Tested compounds were serially diluted across 96-well plates using a 2-fold serial dilution in a volume of 50 μL. An overnight culture of an assay strain was diluted 5,000-fold in fresh medium. 50 μL of this dilution was added into each well, giving a final volume of 100 μL in each well. Compounds were assayed at concentrations ranging from 64 μg/mL to 0.06 μg/mL. The top and bottom rows of each plate were filled with 100 μL of media to avoid edge effects. […] For Clostridium difficile plates were statically incubated under anaerobic conditions (Vinyl anaerobic chamber, 37° C., 5% H2, 5% CO2, 90% N2). For Streptococcus pneumoniae plates were statically incubated under aerobic conditions supplemented with 5% C02 (37° C.). All MICs were performed in technical duplicate (n=2) and repeated three independent times (n=3)."}, "Pseudomonas aeruginosa": {"system": "Pseudomonas aeruginosa", "type": "cell-based", "protocol": "as §1"}, "Streptococcus agalactiae": {"system": "Streptococcus agalactiae", "type": "cell-based", "protocol": "as §1"}, "Enterobacter cloacae": {"system": "Enterobacter cloacae", "type": "cell-based", "protocol": "as §1"}, "Bacillus subtilis": {"system": "Bacillus subtilis", "type": "cell-based", "protocol": "as §1"}, "Klebsiella pneumoniae": {"system": "Klebsiella pneumoniae", "type": "cell-based", "protocol": "as §1"}, "Acinetobacter baumannii": {"system": "Acinetobacter baumannii", "type": "cell-based", "protocol": "as §1"}, "Streptococcus pneumoniae": {"system": "Streptococcus pneumoniae", "type": "cell-based", "protocol": "as §1"}, "Enterococcus faecium": {"system": "Enterococcus faecium", "type": "cell-based", "protocol": "as §1"}, "Gram-positive pathogens": {"system": "Gram-positive pathogens", "type": "cell-based", "protocol": "as §1"}, "Enterococcus faecalis": {"system": "Enterococcus faecalis", "type": "cell-based", "protocol": "as §1"}, "Streptococcus pyrogens": {"system": "Streptococcus pyrogens", "type": "cell-based", "protocol": "as §1"}, "Enterococcus gallinarum": {"system": "Enterococcus gallinarum", "type": "cell-based", "protocol": "as §1"}, "Staphylococcus aureus": {"system": "Staphylococcus aureus", "type": "cell-based", "conditions": "S. aureus, presence versus absence of serum (10% serum)", "protocol": "as §1"}, "S. aureus USA300": {"system": "S. aureus USA300", "type": "cell-based, Staphylococcus aureus", "protocol": "The effect of lipid II biosynthesis intermediates on cilagicin's antibacterial activity was evaluated using S. aureus USA300 and the general MIC assay methods described above with the following changes. Potential antagonizing compounds were mixed with cilagicin at a constant molar ratio of 5. Cilagicin mixed with solvent alone was used as a control. Premixed solutions were dried in vacuo for 2 hours to completely remove all organic solvent. They were then resuspended in LB broth and mixed with S. aureus. All assays were run in duplicate (n=2) and repeated two independent times (n=2)."}, "[4]": {"system": "cell wall biosynthesis (UDP-MurNAc-pentapeptide) in S. aureus USA300", "experiment": "UDP-MurNAc-pentapeptide accumulation assay", "type": "cell-based, Staphylococcus aureus", "conditions": "S. aureus cultures exposed at 1xMIC", "protocol": "The effect of cilagicin on cell wall biosynthesis was investigated by tracking the accumulation UDP-MurNAc-pentapeptide in antibiotic treated cultures. Overnight S. aureus USA300 cultures were diluted in fresh LB broth and grown at 37° C. to an OD600 nm of 0.5. They were then treated with 130 μg/mL of chloramphenicol. After incubating at 37° C. for 15 minutes, 1 μg/mL of cilagicin was added. Vancomycin (10 μg/mL) and DMSO were used as positive and vehicle control, respectively. After an incubation of 60 mins, cells (0.5 mL) were harvested, and the cell pellet was resuspended in 30 μL ddH2O. The cell suspension was incubated in boiling water for 15 minutes and spun down at 15,000×g for 5 minutes. The supernatant was then analyzed by UPLC-DAD-MS (Acquity UPLC BEH C18, 2.1×50 mm, 1.7 μM, 130 Å, […] isocratic elution at 97% water:acetonitrile (ACN) for 1 minute, then from 97% to 5% water:ACN over 3 minutes, with constant 0.1% formic acid; negative ionization modes)."}}, "note": "Read-outs that look alike come from different tables or passages of the source. Positions of bridges follow the written chain, without caps; N, C: chain ends. Non-standard residues stand in square brackets, D forms with d. Residues, ends and D or L forms follow the SMILES beside them. *: point of attachment. Myristoyl = CCCCCCCCCCCCCC(=O)*; dDab = NCC[C@@H](N)C(=O)O; Dab = NCC[C@H](N)C(=O)O"}
{"compound": "CCCCCCCCCCCCCC(=O)N[C@H](CO)C(=O)N[C@@H]1C(=O)N[C@H](CCN)C(=O)N[C@@H](CC(=O)O)C(=O)NCC(=O)N[C@H](CC(N)=O)C(=O)N[C@H](CC(=O)O)C(=O)NCC(=O)N[C@@H](Cc2ccc(O)cc2)C(=O)N[C@@H](C(C)C)C(=O)N[C@@H](CCN)C(=O)N[C@@H](Cc2ccccc2)C(=O)O[C@@H]1C", "note": "[Cilagicin] (Myristoyl-[dS]T[dDab]DG[dN][dD]GYV[Dab]F; ester 2-C)", "values": [{"measurement": "Kd", "setting": "[1]; read-out: dissociation constant (Kd), C55P", "result": 22, "unit": "nM"}, {"measurement": "Kd", "setting": "[1]; read-out: dissociation constant (Kd), C55PP", "result": 56, "unit": "nM"}, {"measurement": "bacterial burden", "setting": "[2]", "result": "did not reduce bacterial burden"}, {"measurement": "Cilagicin MIC", "setting": "[3]", "result": 0.125, "unit": "µg/mL"}, {"measurement": "Cilagicin MIC", "setting": "Pseudomonas aeruginosa", "result": ">64", "unit": "µg/mL"}, {"measurement": "Cilagicin MIC", "setting": "Streptococcus agalactiae", "result": 1, "unit": "µg/mL"}, {"measurement": "MIC", "setting": "Streptococcus agalactiae", "result": 1, "unit": "µg/mL"}, {"measurement": "Cilagicin MIC", "setting": "Enterobacter cloacae", "result": ">64", "unit": "µg/mL"}, {"measurement": "Cilagicin MIC", "setting": "Bacillus subtilis", "result": 2, "unit": "µg/mL"}, {"measurement": "Cilagicin MIC", "setting": "Klebsiella pneumoniae", "result": ">64", "unit": "µg/mL"}, {"measurement": "Cilagicin MIC", "setting": "Acinetobacter baumannii", "result": 8, "unit": "µg/mL"}, {"measurement": "MIC", "setting": "Acinetobacter baumannii; A. baumannii (Table 5)", "result": 8, "unit": "µg/mL"}, {"measurement": "MIC", "setting": "Streptococcus pneumoniae", "result": 0.25, "unit": "µg/mL"}, {"measurement": "Cilagicin MIC", "setting": "Enterococcus faecium", "result": 0.5, "unit": "µg/mL"}, {"measurement": "MIC", "setting": "Enterococcus faecium", "result": 0.5, "unit": "µg/mL"}, {"measurement": "MIC", "setting": "Gram-positive pathogens", "result": 1, "unit": "µg/mL"}, {"measurement": "MICs", "setting": "Gram-positive pathogens", "result": "≤ 0.25", "unit": "µg/mL"}, {"measurement": "minimum inhibitory concentrations (MIC)", "setting": "Gram-positive pathogens", "result": "0.125 to 2", "unit": "µg/mL"}, {"measurement": "Cilagicin MIC", "setting": "Enterococcus faecalis", "result": 0.5, "unit": "µg/mL"}, {"measurement": "Cilagicin MIC", "setting": "Streptococcus pyrogens", "result": 0.125, "unit": "µg/mL"}, {"measurement": "MIC", "setting": "Streptococcus pyrogens", "result": 0.125, "unit": "µg/mL"}, {"measurement": "Cilagicin MIC", "setting": "Enterococcus gallinarum", "result": 0.5, "unit": "µg/mL"}, {"measurement": "antibacterial activity (MIC) in the presence of serum", "setting": "Staphylococcus aureus", "result": "significantly suppressed"}, {"measurement": "molar ratio at which C55-P completely inhibited the bioactivity", "setting": "S. aureus USA300; S. aureus USA300, C55-P", "result": "~ 1.25"}, {"measurement": "molar ratio at which C55-PP gave complete inhibition", "setting": "S. aureus USA300; S. aureus USA300, C55-PP", "result": "~ 2.5"}, {"measurement": "MIC in the presence of C55-P", "setting": "S. aureus USA300; USA300", "result": "≥ 64", "unit": "µg/mL"}, {"measurement": "accumulation of UDP-MurNAc-pentapeptide (LCMS)", "setting": "[4]", "result": "obvious accumulation"}]}
